Experimental data: PubChem BioAssay (NCI)
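Cells were grown in 96-well plates and exposed to each compound for 48 hours at five concentrations; endpoints were interpolated linearly between bracketing concentrations, or set to the highest concentration if not reached. GI50 marks 50% less growth. Definition used: TGI = concentration required for complete inhibition of growth.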

What was measured:
Test in all cases: DTP human tumour cell line panel, 48 h; in the data active = GI50 below about 0.43 µM; inactive = the rest
[1] = test system: HT29 colon
[2] = test system: U251 CNS
[3] = test system: MDA-MB-231 breast
[4] = test system: LOX IMVI melanoma
[5] = test system: OVCAR-3 ovarian
[6] = test system: KM12 colon
[7] = test system: M14 melanoma
[8] = test system: SN12C renal
[9] = test system: SR leukemia
[10] = test system: SK-MEL-2 melanoma
[11] = test system: HCT-116 colon
[12] = test system: A498 renal
[13] = test system: EKVX NSCLC
[14] = test system: NCI-H460 lung
[15] = test system: A549 NSCLC
[16] = test system: COLO 205 colon
[17] = test system: HOP-62 NSCLC
[18] = test system: HCT-15 colon
[19] = test system: T-47D breast
[20] = test system: UO-31 renal
[21] = test system: HOP-92 NSCLC
[22] = test system: SF-539 CNS
[23] = test system: MOLT-4 leukemia
[24] = test system: BT-549 breast
[25] = test system: NCI-H522 lung
[26] = test system: MDA-MB-435
[27] = test system: NCI/ADR-RES ovarian
[28] = test system: CCRF-CEM leukemia
[29] = test system: CAKI-1 renal
[30] = test system: 786-0 renal
[31] = test system: OVCAR-5 ovarian
[32] = test system: RPMI-8226 leukemia
[33] = test system: DU-145 prostate
[34] = test system: MCF7 breast
[35] = test system: TK-10 renal
[36] = test system: SNB-75 CNS
[37] = test system: SNB-19 CNS
[38] = test system: SW-620 colon
[39] = test system: HL-60(TB) leukemia
[40] = test system: RXF 393 renal
[41] = test system: NCI-H226 lung
[42] = test system: OVCAR-4 ovarian
[43] = test system: SK-MEL-28 melanoma
[44] = test system: SF-268 CNS
[45] = test system: SK-OV-3 ovarian
[46] = test system: NCI-H23 lung
[47] = test system: HCC-2998 colon
[48] = test system: UACC-257 melanoma
[49] = test system: MALME-3M melanoma
[50] = test system: PC-3 prostate
[51] = test system: ACHN renal
[52] = test system: IGROV1 ovarian
[53] = test system: OVCAR-8 ovarian
[54] = test system: HS 578T breast
[55] = test system: UACC-62 melanoma
[56] = test system: SK-MEL-5 melanoma
[57] = test system: SF-295 CNS
[58] = test system: MDA-N
[59] = test system: K-562 leukemia

C[C@@H](O)[C@H](NC(=O)N[C@@H](CC(N)=O)c1nc([C@@H](N)CO)no1)C(=O)O
inactive: GI50 [1] > 100 µM | GI50 [2] > 100 µM | GI50 [3] > 100 µM | GI50 [4] > 100 µM | GI50 [5] > 100 µM | GI50 [6] > 100 µM | GI50 [7] > 100 µM | GI50 [8] > 100 µM | GI50 [9] > 100 µM | GI50 [10] > 100 µM | GI50 [11] > 100 µM | GI50 [12] > 100 µM | GI50 [13] > 100 µM | GI50 [14] > 100 µM | GI50 [15] > 100 µM | GI50 [16] > 100 µM | GI50 [17] > 100 µM | GI50 [18] > 100 µM | GI50 [19] > 100 µM | GI50 [20] > 100 µM | GI50 [21] > 100 µM | GI50 [22] > 100 µM | GI50 [23] > 100 µM | GI50 [24] > 100 µM | GI50 [25] > 100 µM | GI50 [26] > 100 µM | GI50 [27] > 100 µM | GI50 [28] > 100 µM | GI50 [29] > 100 µM | GI50 [30] > 100 µM | GI50 [31] > 100 µM | GI50 [32] > 100 µM | GI50 [33] > 100 µM | GI50 [34] > 100 µM | GI50 [35] > 100 µM | GI50 [36] > 100 µM | GI50 [37] > 100 µM | GI50 [38] > 100 µM | GI50 [39] > 100 µM | GI50 [40] > 100 µM | GI50 [41] > 100 µM | GI50 [42] > 100 µM | GI50 [43] > 100 µM | GI50 [44] > 100 µM | GI50 [45] > 100 µM | GI50 [46] > 100 µM | GI50 [47] > 100 µM | GI50 [48] > 100 µM | GI50 [49] > 100 µM | GI50 [50] > 100 µM | GI50 [51] > 100 µM | GI50 [52] > 100 µM | GI50 [53] > 100 µM | GI50 [54] > 100 µM | GI50 [55] > 100 µM | GI50 [56] > 100 µM | GI50 [57] > 100 µM
> 100 µM: TGI [1] | TGI [2] | TGI [3] | TGI [4] | TGI [5] | TGI [6] | TGI [7] | TGI [8] | TGI [9] | TGI [10] | TGI [11] | TGI [12] | TGI [13] | TGI [14] | TGI [15] | TGI [16] | TGI [17] | TGI [18] | TGI [19] | TGI [20] | TGI [21] | TGI [22] | TGI [23] | TGI [24] | TGI [25] | TGI [26] | TGI [27] | TGI [28] | TGI [29] | TGI [30] | TGI [31] | TGI [32] | TGI [33] | TGI [34] | TGI [35] | TGI [36] | TGI [37] | TGI [38] | TGI [39] | TGI [40] | TGI [41] | TGI [42] | TGI [43] | TGI [44] | TGI [45] | TGI [46] | TGI [47] | TGI [48] | TGI [49] | TGI [50] | TGI [51] | TGI [52] | TGI [53] | TGI [54] | TGI [55] | TGI [56] | TGI [57]

O=C(O)C1CCCCC1C(=O)Nn1cnnc1 (stereo not given)
> 100 µM: TGI [1] | TGI [2] | TGI [3] | TGI [4] | TGI [5] | TGI [6] | TGI [7] | TGI [8] | TGI [9] | TGI [10] | TGI [11] | TGI [13] | TGI [15] | TGI [16] | TGI [17] | TGI [18] | TGI [20] | TGI [21] | TGI [22] | TGI [23] | TGI [24] | TGI [25] | TGI [26] | TGI [27] | TGI [28] | TGI [58] | TGI [30] | TGI [31] | TGI [32] | TGI [59] | TGI [33] | TGI [34] | TGI [35] | TGI [36] | TGI [37] | TGI [38] | TGI [40] | TGI [42] | TGI [43] | TGI [44] | TGI [45] | TGI [46] | TGI [47] | TGI [48] | TGI [50] | TGI [51] | TGI [52] | TGI [53] | TGI [55] | TGI [56] | TGI [57]
